According to US20160095810A1, “Cosmetic and/or dermatological compositions containing polyphenols stabilized by perfluoropolyether phosphates and use of perfluoropolyether phosphates as stabilizing agents for polyphenols” (BIO.LO.GA, priority 2003, published 2016):

Tests used:
[1] = stability test of the cream, twelve weeks at 45° C., viscosity check and HPLC content; format: physicochemical; conditions: cream of Example 1, twelve weeks at 45° C.; nominal tocopherol 5, Greenselect 0.5, Leucoselect 0.5
Method: The cream was packed in plastics containers of 50 ml and subjected to a test to confirm the stability. A series of samples of the cream contained in the said small plastic jars was kept in an oven at 45° C. for twelve weeks, after which the viscosity of the cream was checked and found unaltered with respect to the starting value.
In addition there was the verification of the amount of polyphenols and vitamin E present in the cream at the end of the twelve weeks at 45° C., by means of an HPLC method, using a Macherey-Nagel column, Nucleosil 100-5 C18, packed with 5 μm particles (150×4.6 mm internal diameter), and a pre-column system Nucleosil 100-5 C18, CC 8/4.
The determination of free tocopherol, carried out using methanol as the eluent in isocratic conditions, with a flow rate of 1 ml/min and λ 290 nm, gave a value of 5.2%.
The determination of the polyphenol concentration in the cream was carried out using a mobile phase in binary gradient as eluent, composed of: phase A=0.3% formic acid in water and phase B=methanol; flow rate 1 ml/min; λ=278 nm. In such conditions the Greenselect® has a retention time Rt=22.84 min and the Leucoselect® Rt=6.53 min.

[2] = stability of ascorbic acid in the cream, UV determination at 266.5 nm; format: physicochemical; conditions: cream of Example 3, 4 months at room temperature then 45° C. for one month
Method: The stability of the ascorbic acid contained in the cream was determined as follows.
A series of samples of the cream contained in the said small plastic jars was kept for a period of 4 months at room temperature and then in an oven at 45° C. for one month, after which the ascorbic acid content of the cream was checked.
In order to determine the ascorbic acid content, 100 mg of cream were diluted in 100 ml of 0.1 M phosphate buffer at pH 6, and the thus obtained suspension was magnetically stirred in the dark for 20 minutes. Thereafter, 30 ml of the suspension were transferred to a 50 ml centrifuge tube and 15 ml of chloroform were added. The tube was shaken for 10 minutes and then centrifuged at 6000 rpm for 5 minutes. The upper aqueous phase was directly analyzed with a UV Vis Jasco V-350 spectrophotometer, using phosphate buffer as a blank and the ascorbic acid peak at 266.5 nm was measured.
The ascorbic acid concentration was determined by means of a calibration curve made from standard solutions containing 1.0, 1.5 and 2.0 mg ascorbic acid/100 ml phosphate buffer.

amount present in the cream at the end of storage (HPLC) [1]	ascorbic acid lost by the end of the storage period [2]	ascorbic acid concentration from the calibration curve ([2]; nominal 2 mg/100 ml)	SMILES
5.2%	–	–	Cc1c(C)c2c(c(C)c1O)CC[C@@](C)(CCC[C@H](C)CCC[C@H](C)CCCC(C)C)O2 [free tocopherol, Tocopherol]
–	7.8%	1.844 mg/100 ml	O=C1O[C@H]([C@@H](O)CO)C(O)=C1O [ascorbic acid, Ascorbic acid]
